Like-named read-outs stand apart in the source and are kept apart here.
Experiments:
MDA‐MB‐436 = test: Cell growth inhibition, CellTiter‐Glo (CTG); assay type: cell-based; conditions: CTG, 5 days, n = 3
Description: (§1) All cells were grown in a humidified incubator at 37 °C and 5% CO2.
(§2) Growth viability was determined by the CellTiter‐Glo luminescent viability assay (Promega) 5 days after drug treatment. Cell viability was measured immediately after dosing (Day 0) and after 5 days of incubation using CellTiter‐Glo (CTG, Promega, G7573). Relative viability was calculated by normalizing the raw luminescence counts of the treated groups to those of the DMSO control groups. IC₅₀ values were calculated using sigmoidal dose‐response curve fitting with GraphPad Prism 9.0 software.

MDA‐MB‐231 cells [1] = test: Cell cycle assay, flow cytometry (PI); assay type: cell-based; conditions: MDA‐MB‐231, 48 h; A7, B8 0.5 and 1.0 µM, controls 1.0 µM
Description: (§3) The cell cycle analysis was performed with cells seeded in 6‐well plates in growth media. The cells were allowed to attach overnight (8 h). The cultures were treated with different tested drugs for 48 h. After treatment, cells were collected and fixed with 70% pre‐cold ethanol in PBS and stored at −20 °C overnight. Then washed the cells with PBS twice, and incubated with 100 µg mL^−1 RNase A at 37 °C for 1 h, stained with propidium iodide for 30 min avoid light at room temperature. The stained cells were analyzed by flow cytometry. The percentages of cells in the G1, S, and G2/M phases were determined. The data were analyzed by FlowJo software (Tree Star, Inc., Ashland, OR).

MDA‐MB‐468 cells [2] = test: Cell cycle assay, flow cytometry (PI); assay type: cell-based; conditions: MDA‐MB‐468, 48 h; A7, B8 0.5 and 1.0 µM, controls 1.0 µM
Description: as §3

PARP1 = PARP1 (Homo sapiens, UniProt P09874); test: PARP enzymatic inhibition ELISA (PARP1); assay type: biochemical; conditions: n = 3, mean ± SD
Description: The PARP activity assay was performed by ChemPartner (Shanghai, China). Each well was precoated with histone (final conc.: 100 ng mL^−1) diluted in PBS buffer (contains 10 mmol L^−1 NaH2PO4 and 150 mmol L^−1 NaCl, pH 7.4) by incubation at 4 °C overnight. […] The reaction was initiated by the addition of 10 µL of PARP (final conc.: 0.007 nM/well) at room temperature for 60 min. Add 20 µL of anti‐Poly/Mono‐ADP Ribose Rabbit mAb. Incubate for 1.5 h at room temperature and wash the plate three times using PBST buffer. […] Incubate for 1 h at room temperature and wash the plate three times using PBST buffer. Add 25 µL Femto‐ECL Substrate A and Femto‐ECL Substrate B (1:1) mix. Immediately read chemiluminescence on Envision (Revvity, USA).

MDA‐MB‐231 cells [3] = test: Cell apoptosis assay, Annexin V‐FITC/PI; assay type: cell-based; conditions: MDA‐MB‐231, 72 h
Description: (§4) The cell apoptosis analysis was performed with cells seeded in 6‐well plates in growth media. The cells were allowed to attach overnight (8 h). The cultures were treated with different tested drugs for 72 h and evaluated using an Annexin V Flow Kit (BioLegend#B367750) according to the manufacturer's instructions. The data were analyzed by FlowJo software (Tree Star, Inc., Ashland, OR).

MDA‐MB‐468 cells [4] = test: Cell apoptosis assay, Annexin V‐FITC/PI; assay type: cell-based; conditions: MDA‐MB‐468, 72 h
Description: as §4

MDA‐MB‐468 = test: Cell growth inhibition, CellTiter‐Glo (CTG); assay type: cell-based; conditions: Homo sapiens, MDA-MB-468, 120 h; CTG, 5 days, n = 3
Description: as §1
(§5) […] […] Relative viability was calculated by normalizing the raw luminescence counts of the treated groups to those of the DMSO control groups. IC₅₀ values were calculated using sigmoidal dose‐response curve fitting with GraphPad Prism 9.0 software.

MDA‐MB‐231 = test: Cell growth inhibition, CellTiter‐Glo (CTG); assay type: cell-based; conditions: Homo sapiens, MDA-MB-231, 120 h, read-out: IC50 MDA‐MB‐231; CTG, 5 days, n = 3
Description: as §1, §5

ATR = target: T1, ATR (Homo sapiens, UniProt Q13535); test: ATR kinase inhibition, Mobility Shift Assay; assay type: biochemical; conditions: n = 3, mean ± SD
T1 construct: purchased Eurofins 14-953
Description: The in vitro ATR kinase inhibitory activities were determined by ChemPartner Co., Ltd. (Shanghai, China) using the Mobility Shift Assay. The tested compound was dissolved with DMSO and diluted to 1000/3 × of the final desired highest inhibitor concentration in the reaction. […] The assay wells were incubated at 28 °C for 4 h.

MCF‐7 = test: Cell growth inhibition, CellTiter‐Glo (CTG); assay type: cell-based; conditions: Homo sapiens, MCF7; n = 3
Description: as §2

MDA‐MB‐453 = test: Cell growth inhibition, CellTiter‐Glo (CTG); assay type: cell-based; conditions: Homo sapiens
Description: as §2

MCF‐10A = test: Cell growth inhibition, normal breast cell line; assay type: cell-based; conditions: Homo sapiens, MCF-10A; @30 µM; read-out: MCF‐10A inhibitory rate at certain concentration
Description: as §2

[5] = Homo sapiens, MDA-MB-436, 120 h

T1 sequence (Q13535 whole entry): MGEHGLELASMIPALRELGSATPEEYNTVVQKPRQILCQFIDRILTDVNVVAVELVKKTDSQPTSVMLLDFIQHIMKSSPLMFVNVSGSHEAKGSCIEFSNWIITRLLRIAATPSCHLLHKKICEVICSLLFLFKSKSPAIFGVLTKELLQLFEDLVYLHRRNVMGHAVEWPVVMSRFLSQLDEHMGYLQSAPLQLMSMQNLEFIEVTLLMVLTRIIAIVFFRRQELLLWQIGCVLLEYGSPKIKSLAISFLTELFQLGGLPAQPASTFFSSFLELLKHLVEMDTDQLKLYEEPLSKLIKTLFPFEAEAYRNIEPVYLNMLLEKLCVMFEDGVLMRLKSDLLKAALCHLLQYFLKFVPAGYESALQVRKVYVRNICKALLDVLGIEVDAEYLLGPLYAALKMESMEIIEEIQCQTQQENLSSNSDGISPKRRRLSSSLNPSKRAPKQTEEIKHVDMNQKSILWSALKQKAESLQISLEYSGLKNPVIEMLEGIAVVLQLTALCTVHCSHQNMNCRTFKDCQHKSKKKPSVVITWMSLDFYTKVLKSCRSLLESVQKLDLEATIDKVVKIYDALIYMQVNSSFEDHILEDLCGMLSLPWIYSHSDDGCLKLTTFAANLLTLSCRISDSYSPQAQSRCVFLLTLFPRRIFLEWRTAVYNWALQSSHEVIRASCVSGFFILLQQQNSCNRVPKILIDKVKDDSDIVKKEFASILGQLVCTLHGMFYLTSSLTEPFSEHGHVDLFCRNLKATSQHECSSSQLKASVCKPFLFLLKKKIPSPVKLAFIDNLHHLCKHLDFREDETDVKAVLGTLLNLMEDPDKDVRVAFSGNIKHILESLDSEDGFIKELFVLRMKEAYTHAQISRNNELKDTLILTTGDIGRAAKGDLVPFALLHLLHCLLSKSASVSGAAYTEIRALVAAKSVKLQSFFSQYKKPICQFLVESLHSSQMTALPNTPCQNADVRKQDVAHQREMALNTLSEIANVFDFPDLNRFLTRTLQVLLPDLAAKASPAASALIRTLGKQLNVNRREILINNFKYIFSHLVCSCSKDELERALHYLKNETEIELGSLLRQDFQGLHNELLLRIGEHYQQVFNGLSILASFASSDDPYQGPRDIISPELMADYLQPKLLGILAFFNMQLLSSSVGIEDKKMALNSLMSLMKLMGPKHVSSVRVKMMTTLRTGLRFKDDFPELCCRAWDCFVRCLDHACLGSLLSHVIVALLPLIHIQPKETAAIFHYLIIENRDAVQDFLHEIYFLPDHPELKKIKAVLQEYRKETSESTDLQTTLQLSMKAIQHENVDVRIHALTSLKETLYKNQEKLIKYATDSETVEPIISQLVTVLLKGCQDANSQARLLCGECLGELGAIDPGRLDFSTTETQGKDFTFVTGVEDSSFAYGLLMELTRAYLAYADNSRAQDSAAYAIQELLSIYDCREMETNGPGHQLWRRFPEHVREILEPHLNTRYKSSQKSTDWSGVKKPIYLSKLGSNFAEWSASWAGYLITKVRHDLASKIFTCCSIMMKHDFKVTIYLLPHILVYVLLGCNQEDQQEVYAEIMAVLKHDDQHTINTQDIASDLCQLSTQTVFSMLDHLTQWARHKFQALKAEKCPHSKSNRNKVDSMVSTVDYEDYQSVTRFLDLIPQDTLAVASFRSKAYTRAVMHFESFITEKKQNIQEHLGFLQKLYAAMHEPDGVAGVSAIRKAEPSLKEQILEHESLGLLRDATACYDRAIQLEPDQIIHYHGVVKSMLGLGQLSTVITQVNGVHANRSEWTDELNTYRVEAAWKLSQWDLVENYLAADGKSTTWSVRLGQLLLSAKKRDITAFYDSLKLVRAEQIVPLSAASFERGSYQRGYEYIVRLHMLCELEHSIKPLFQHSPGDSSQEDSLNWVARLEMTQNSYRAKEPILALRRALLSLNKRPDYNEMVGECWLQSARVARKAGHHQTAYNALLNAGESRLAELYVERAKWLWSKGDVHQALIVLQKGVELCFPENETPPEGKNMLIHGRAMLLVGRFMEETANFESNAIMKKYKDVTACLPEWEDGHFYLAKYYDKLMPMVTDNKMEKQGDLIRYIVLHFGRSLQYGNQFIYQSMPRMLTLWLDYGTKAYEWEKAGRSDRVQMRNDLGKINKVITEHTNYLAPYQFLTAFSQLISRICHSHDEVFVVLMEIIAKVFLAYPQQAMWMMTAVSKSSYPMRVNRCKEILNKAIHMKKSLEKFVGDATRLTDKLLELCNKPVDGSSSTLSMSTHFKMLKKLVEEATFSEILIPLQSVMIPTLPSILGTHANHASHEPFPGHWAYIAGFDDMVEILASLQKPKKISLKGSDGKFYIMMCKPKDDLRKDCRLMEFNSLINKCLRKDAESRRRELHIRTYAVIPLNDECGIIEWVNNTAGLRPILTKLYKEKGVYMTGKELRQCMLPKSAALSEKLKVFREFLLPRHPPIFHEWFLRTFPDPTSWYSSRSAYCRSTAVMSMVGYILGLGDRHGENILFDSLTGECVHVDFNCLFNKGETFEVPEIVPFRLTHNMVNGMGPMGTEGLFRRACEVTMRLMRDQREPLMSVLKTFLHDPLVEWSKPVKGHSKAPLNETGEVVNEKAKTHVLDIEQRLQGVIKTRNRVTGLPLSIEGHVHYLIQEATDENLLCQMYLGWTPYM
T1 sequence (Q8WXE1 whole entry partner): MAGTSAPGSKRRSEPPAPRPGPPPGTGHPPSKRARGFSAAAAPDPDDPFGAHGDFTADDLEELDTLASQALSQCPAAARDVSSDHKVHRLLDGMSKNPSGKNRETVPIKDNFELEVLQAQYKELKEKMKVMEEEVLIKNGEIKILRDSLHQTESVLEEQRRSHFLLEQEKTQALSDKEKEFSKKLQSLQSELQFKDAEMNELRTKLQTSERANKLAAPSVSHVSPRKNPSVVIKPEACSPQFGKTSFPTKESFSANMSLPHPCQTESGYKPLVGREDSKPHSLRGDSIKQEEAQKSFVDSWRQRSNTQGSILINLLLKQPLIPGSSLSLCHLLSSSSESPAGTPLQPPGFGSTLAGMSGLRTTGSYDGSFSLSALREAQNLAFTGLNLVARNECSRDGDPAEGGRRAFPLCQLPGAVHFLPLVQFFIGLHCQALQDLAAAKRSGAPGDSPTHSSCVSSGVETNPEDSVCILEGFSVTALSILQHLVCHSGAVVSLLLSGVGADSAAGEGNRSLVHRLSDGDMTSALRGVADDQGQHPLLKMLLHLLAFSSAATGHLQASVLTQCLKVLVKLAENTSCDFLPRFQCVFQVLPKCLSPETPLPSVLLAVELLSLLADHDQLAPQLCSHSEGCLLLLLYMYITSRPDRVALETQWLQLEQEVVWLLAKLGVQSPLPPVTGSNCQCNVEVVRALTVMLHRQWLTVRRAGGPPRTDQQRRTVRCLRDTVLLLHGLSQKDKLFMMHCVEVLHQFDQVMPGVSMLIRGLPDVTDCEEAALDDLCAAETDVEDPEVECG
Sequence of PARP1 (P09874 whole entry): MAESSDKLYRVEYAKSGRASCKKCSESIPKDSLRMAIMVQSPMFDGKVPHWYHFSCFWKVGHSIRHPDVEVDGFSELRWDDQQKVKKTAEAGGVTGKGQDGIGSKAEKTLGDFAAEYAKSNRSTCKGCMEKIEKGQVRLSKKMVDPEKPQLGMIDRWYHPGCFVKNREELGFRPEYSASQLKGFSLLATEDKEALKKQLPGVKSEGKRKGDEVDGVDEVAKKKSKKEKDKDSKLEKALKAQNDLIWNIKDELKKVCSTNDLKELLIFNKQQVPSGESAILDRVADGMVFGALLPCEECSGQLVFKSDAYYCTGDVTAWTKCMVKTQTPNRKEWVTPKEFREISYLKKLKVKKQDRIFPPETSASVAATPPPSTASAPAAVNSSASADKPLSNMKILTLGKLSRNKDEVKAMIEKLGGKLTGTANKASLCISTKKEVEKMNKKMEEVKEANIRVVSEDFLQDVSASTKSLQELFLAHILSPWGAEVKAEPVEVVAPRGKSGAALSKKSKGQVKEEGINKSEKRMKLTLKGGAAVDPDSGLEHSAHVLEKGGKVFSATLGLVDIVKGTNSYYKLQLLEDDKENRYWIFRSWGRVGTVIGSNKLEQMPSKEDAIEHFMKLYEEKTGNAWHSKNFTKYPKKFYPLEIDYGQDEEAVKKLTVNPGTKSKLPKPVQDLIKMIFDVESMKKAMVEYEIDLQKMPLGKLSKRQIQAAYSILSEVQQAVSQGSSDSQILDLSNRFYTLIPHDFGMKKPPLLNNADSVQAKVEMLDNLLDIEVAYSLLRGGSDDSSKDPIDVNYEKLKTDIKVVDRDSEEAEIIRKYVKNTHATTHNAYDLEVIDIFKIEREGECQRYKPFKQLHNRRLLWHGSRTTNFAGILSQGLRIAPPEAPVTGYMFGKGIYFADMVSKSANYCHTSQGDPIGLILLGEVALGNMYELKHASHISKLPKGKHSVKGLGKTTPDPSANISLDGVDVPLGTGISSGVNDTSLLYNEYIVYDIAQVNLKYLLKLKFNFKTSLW

Structure (SMILES) | IC50 (MDA‐MB‐436; [5]) | effect on cell cycle distribution (MDA‐MB‐231 cells [1]) | effect on cell cycle distribution (MDA‐MB‐468 cells [2]) | IC50 (PARP1) | ability to induce apoptosis vs combination of AZD6738 and Olaparib (MDA‐MB‐231 cells [3]) | ability to induce apoptosis vs combination of AZD6738 and Olaparib (MDA‐MB‐468 cells [4]) | IC50 (MDA‐MB‐468) | IC50 (MDA‐MB‐231) | IC50 (ATR) | IC50 (MDA‐MB‐436) | IC50 (MCF‐7) | IC50 (MDA‐MB‐453; MDA-MB-453, n = 3, read-out: IC50 MAD‐MB‐453) | inhibition at 30 µM (MCF‐10A) | IC50 (MDA‐MB‐453; MDA-MB-453, read-out: IC50 MAD‐MB‐453)
C[C@@H]1COCCN1c1cc(C2(NC(=O)c3ccc(C(=O)N4CCN(C(=O)c5cc(Cc6n[nH]c(=O)c7ccccc67)ccc5F)CC4)cc3)CC2)nc(-c2ccnc3[nH]ccc23)n1 [Compound A7, (R) ‐4‐(4‐(2‐fluoro‐5‐((4‐oxo‐3,4‐dihydrophthalazin‐1‐yl)methyl)benzoyl)piperazine‐1‐carbonyl)‐N‐(1‐(6‐(3‐methylmorpholino)‐2‐(1H‐pyrrolo[2,3‐b]pyridin‐4‐yl)pyrimidin‐4‐yl)cyclopropyl)benzamide] | 0.015 ± 0.001 µM | did not demonstrate any significant effects on the cell cycle | did not demonstrate any significant effects on the cell cycle | 0.00056 ± 0.00021 µM | does not show a significant enhancement | does not show a significant enhancement | 0.23 ± 0.07 µM | 13.4 ± 3.44 µM | 0.043 ± 0.007 µM |  |  |  |  | 
C[C@@H]1COCCN1c1cc(C2([S@](C)(=N)=O)CC2)nc(-c2cc[nH]c3nccc2-3)n1 [8 (AZD6738), Ceralasertib, reference compound] | 3.8 µM |  | did not significantly change the cell cycle distribution |  |  |  | 18.6 ± 1.75 µM |  |  | 3.84 ± 0.52 µM | 2.01 ± 0.43 µM | 1.46 ± 0.17 µM | 25.9% | 
O=C(c1cc(Cc2n[nH]c(=O)c3ccccc23)ccc1F)N1CCN(C(=O)C2CC2)CC1 [1 (Olaparib), Olaparib, reference compound] | 4.5 µM | did not significantly change the cell cycle distribution | did not significantly change the cell cycle distribution |  |  |  | 10.5 ± 0.59 µM | 21.9 ± 2.36 µM |  | 4.53 ± 0.21 µM | > 30 µM |  | 14.5% | > 30 µM

Source: publication PMC12362783 (Advanced Science, 2025)
